Measured values published in patent US20240150377A1, “MODULATORS OF CYSTIC FIBROSIS TRANSMEMBRANE CONDUCTANCE REGULATOR” (VERTEX PHARMACEUTICALS INCORPORATED, priority 2020, published 2024).
Where two headings read alike, the source gives them in different places. Blank lines part the entries; values can stand above or below the compound they belong to.

Target: T1, CFTR (Homo sapiens, UniProt P13569, DEL508-508)
T1 construct: endogenous in cells; host or cells: primary human bronchial epithelial cells from CF subjects (F508del/MF-HBE), differentiated at air-liquid interface
T1 sequence (P13569 with tags, fused parts or gaps DEL508-508): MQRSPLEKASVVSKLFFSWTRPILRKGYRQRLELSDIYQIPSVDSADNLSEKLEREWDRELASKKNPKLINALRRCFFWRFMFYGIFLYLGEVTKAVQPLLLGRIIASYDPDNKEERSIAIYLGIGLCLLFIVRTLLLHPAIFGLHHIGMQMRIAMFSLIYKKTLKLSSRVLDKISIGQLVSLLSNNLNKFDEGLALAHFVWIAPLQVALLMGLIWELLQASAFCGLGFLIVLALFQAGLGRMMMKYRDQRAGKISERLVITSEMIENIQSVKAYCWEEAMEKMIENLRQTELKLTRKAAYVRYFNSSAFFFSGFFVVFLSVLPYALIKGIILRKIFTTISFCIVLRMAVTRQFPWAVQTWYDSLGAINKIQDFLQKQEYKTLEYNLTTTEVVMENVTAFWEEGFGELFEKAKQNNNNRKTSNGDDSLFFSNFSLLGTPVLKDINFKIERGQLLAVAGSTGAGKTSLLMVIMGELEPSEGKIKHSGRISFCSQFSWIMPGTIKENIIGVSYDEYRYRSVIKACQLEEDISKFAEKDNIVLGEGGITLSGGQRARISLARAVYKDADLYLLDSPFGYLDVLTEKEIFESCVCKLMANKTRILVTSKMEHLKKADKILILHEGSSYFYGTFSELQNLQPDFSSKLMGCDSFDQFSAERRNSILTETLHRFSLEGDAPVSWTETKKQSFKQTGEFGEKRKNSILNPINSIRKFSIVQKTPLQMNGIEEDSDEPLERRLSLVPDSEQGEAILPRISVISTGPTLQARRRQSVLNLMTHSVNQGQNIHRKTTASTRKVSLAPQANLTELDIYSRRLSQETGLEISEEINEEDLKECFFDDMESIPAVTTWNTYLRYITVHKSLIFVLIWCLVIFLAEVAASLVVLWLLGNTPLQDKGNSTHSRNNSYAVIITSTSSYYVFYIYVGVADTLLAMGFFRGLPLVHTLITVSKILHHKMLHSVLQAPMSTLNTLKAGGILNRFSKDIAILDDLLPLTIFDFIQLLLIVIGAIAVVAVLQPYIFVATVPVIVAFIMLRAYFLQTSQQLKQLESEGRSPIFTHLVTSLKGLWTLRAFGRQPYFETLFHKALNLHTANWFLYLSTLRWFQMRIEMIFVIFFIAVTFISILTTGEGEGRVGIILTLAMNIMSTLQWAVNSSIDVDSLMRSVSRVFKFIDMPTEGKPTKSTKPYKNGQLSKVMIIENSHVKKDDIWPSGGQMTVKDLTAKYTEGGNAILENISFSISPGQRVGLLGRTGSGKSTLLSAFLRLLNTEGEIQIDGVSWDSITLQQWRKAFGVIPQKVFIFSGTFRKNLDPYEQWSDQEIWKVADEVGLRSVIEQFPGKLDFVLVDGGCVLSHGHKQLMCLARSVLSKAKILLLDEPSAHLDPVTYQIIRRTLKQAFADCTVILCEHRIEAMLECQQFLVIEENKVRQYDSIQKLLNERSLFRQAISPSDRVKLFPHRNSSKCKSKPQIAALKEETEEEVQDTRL
Assay: HBE assay: Ussing chamber assay of CFTR-mediated short-circuit currents
Format: cell-based
Settings: for activation at 10 µM: read-out: HBE Activity at 10 μM (%)
Experimental: 1. Ussing Chamber Assay of CFTR-Mediated Short-Circuit Currents
(§1) Ussing chamber experiments were performed using human bronchial epithelial (HBE) cells derived from CF subjects heterozygous for F508del and a minimal function CFTR mutation (F508del/MF-HBE) and cultured as previously described (Neuberger T, Burton B, Clark H, Van Goor F Methods Mol Biol 2011:741:39-54). After four days the apical media was removed, and the cells were grown at an air liquid interface for >14 days prior to use.
(§2) To isolate the CFTR-mediated short-circuit (ISC) current, F508del/MF-HBE grown on Costar® Snapwell™ cell culture inserts were mounted in an Ussing chamber and the transepithelial ISC was measured under voltage-clamp recording conditions (Vhold=0 mV) at 37° C. The basolateral solution contained (in mM) 145 NaCl, 0.83 K2HPO4, 3.3 KH2PO4, 1.2 MgCl2, 1.2 CaCl2), 10 Glucose, 10 HEPES (pH adjusted to 7.4 with NaOH) and the apical solution contained (in mM) 145 NaGluconate, 1.2 MgCl2, 1.2 CaCl2), 10 glucose, 10 HEPES (pH adjusted to 7.4 with NaOH) and 30 μM amiloride to block the epithelial sodium channel. Forskolin (20 μM) was added to the apical surface to activate CFTR, followed by apical addition of a CFTR inhibitor cocktail consisting of BPO, GlyH-101, and CFTR inhibitor 172 (each at 20 μM final assay concentration) to specifically isolate CFTR currents. The CFTR-mediated ISC (μA/cm^2) for each condition was determined from the peak forskolin response to the steady-state current following inhibition.
2. Identification of Corrector Compounds
The activity of the CFTR corrector compounds on the CFTR-mediated ISC was determined in Ussing chamber studies as described above. The F508del/MF-HBE cell cultures were either incubated with the corrector compounds at a range of concentrations in combination with 1 μM Ivacaftor or were incubated with the corrector compounds at a single fixed concentration of 10 μM in combination with 1 μM Ivacaftor for 18-24 hours at 37° C. and in the presence of 20% human serum. The concentration of corrector compounds with 1 μM Ivacaftor during the 18-24 hours incubations was kept constant throughout the Ussing chamber measurement of the CFTR-mediated ISC to ensure compounds were present throughout the entire experiment.
Ussing Chamber Assay of CFTR-mediated short-circuit currents
as §1, with “(HIBE)” for “(HBE)”, “(F508del/MIF-HIBE)” for “(F508del/MF-HBE)”
as §2, with “KH2PO4,” for “K2HPO4,”
Identification of Corrector Compounds

[1] = Table 11, read-out: HBE Max Activity (%)
[2] = Table 12, read-out: HBE Max Activity (%)
[3] = Table 13, read-out: HBE Max Activity (%)
[4] = HBE assay, read-out: HBE Max activity (%)

SMILES: Cc1cccc(C)c1-c1cc2nc(n1)NS(=O)(=O)c1cccc(c1)C(=O)N(Cc1ncc(N3CCC(C)(C)CC3)cn1)[C@H](CC(C)(C)C)CO2 [Compound 117, (11R)-6-(2,6-dimethylphenyl)-12-[[5-(4,4-dimethyl-1-piperidyl)pyrimidin-2-yl]methyl]-11-(2,2-dimethylpropyl)-2,2-dioxo-9-oxa-2λ^6-thia-3,5,12,19-tetrazatricyclo[12.3.1.14,8]nonadeca-1(18),4(19),5,7,14,16-hexaen-13-one]
EC50 (Table 11, read-out: HBE EC50): < 1 µM
Emax [1]: > 60%

SMILES: Cc1cccc(C)c1-c1cc2nc(n1)NS(=O)(=O)c1cccc(c1)C(=O)N(Cc1ncc(N3C4CCC3COC4)cn1)[C@H](CC(C)(C)C)CO2 [Compound 563]
EC50 (HBE EC50 (μM), Table 12): < 1 µM
Emax [2]: > 60%

SMILES: Cc1cccc(C)c1-c1cc2nc(n1)NS(=O)(=O)c1cccc(c1)C(=O)N(CC(=O)N1CCOCC1C(C)C)[C@H](CC(C)(C)C)CO2 (stereo partly drawn) [Compound 212]
activation at 10 µM (Table 13, at 10 μM): > 600%

SMILES: Cc1cccc(C)c1-c1cc2nc(n1)NS(=O)(=O)c1cccc(n1)C(=O)N(Cc1cccc(N3CCCC3C)n1)[C@H](CC(C)(C)C)CO2 (stereo partly drawn) [Compound 1127]
EC50 (Table 13, read-out: HBE EC50): < 1 µM
Emax [3]: > 60%

SMILES: Cc1cccc(C)c1-c1cc2nc(n1)NS(=O)(=O)c1cccc(c1)C(=O)N(CC(=O)N(C)C1CCC(C)(C)CC1)[C@H](CC(C)(C)C)CO2 [Compound 172]
activation at 10 µM (Table 13, at 10 μM): > 600%

SMILES: Cc1cccc(C)c1-c1cc2nc(n1)NS(=O)(=O)c1cccc(c1)C(=O)N(Cc1ncc(N3CC[C@@](C)(F)C3)cn1)[C@H](CC(C)(C)C)CO2 [Compound 1441]
EC50 (HBE assay, read-out: HBE EC50): < 1 µM
Emax [4]: > 60%

SMILES: Cc1cccc(C)c1-c1cc2nc(n1)NS(=O)(=O)c1cccc(c1)C(=O)N(Cc1ncc(OC3CCOCC3)cn1)[C@H](CC(C)(C)C)CO2 [Compound 556]
EC50 (Table 12, read-out: HBE EC50): < 1 µM
Emax [2]: > 60%

SMILES: Cc1cccc(C)c1-c1cc2nc(n1)NS(=O)(=O)c1cccc(c1)C(=O)N(Cc1ccc(N3CC(=O)NC3=O)cc1)[C@H](CC(C)(C)C)CO2 [Compound 146, 1-[4-[[(11R)-6-(2,6-Dimethylphenyl)-11-(2,2-dimethylpropyl)-2,2,13-trioxo-9-oxa-2λ^6-thia-3,5,12,19-tetrazatricyclo[12.3.1.14,8]nonadeca-1(18),4(19),5,7,14,16-hexaen-12-yl]methyl]phenyl]imidazolidine-2,4-dione]
EC50 (Table 10, read-out: HBE EC50): 1 to 3 µM
Emax (Table 10, read-out: HBE Max activity (%)): > 60%

SMILES: Cc1cccc(C)c1-c1cc2nc(n1)NS(=O)(=O)c1cccc(c1)C(=O)N(CC(=O)N1CCc3c(Cl)nc(C(F)(F)F)nc3C1)[C@H](CC(C)(C)C)CO2 [Compound 206]
activation at 10 µM (Table 13, at 10 μM): 30 to 60%

SMILES: Cc1cccc(C)c1-c1cc2nc(n1)NS(=O)(=O)c1cccc(c1)C(=O)N(Cc1ncc(OC3CCC3)cn1)[C@H](CC(C)(C)C)CO2 [Compound 558]
EC50 (Table 12, read-out: HBE EC50): < 1 µM
Emax [2]: > 60%

SMILES: COCCN(CCOC)c1cccc(CN2C(=O)c3cccc(c3)S(=O)(=O)Nc3nc(cc(-c4c(C)cccc4C)n3)OC[C@H]2CC(C)(C)C)n1 [Compound 128, (11R)-12-[[6-[Bis(2-methoxyethyl)amino]-2-pyridyl]methyl]-6-(2,6-dimethylphenyl)-11-(2,2-dimethylpropyl)-2,2-dioxo-9-oxa-2λ^6-thia-3,5,12,19-tetrazatricyclo[12.3.1.14,8]nonadeca-1(18),4(19),5,7,14,16-hexaen-13-one]
EC50 (Table 10, read-out: HBE EC50): < 1 µM
activation at 10 µM: > 60%
Emax (read-out: HBE Max activity (%)): > 60%

SMILES: CC[C@@H](C)Oc1cnc(CN2C(=O)c3cccc(c3)S(=O)(=O)Nc3nc(cc(-c4c(C)cccc4C)n3)OC[C@H]2CC2CC2)nc1 [Compound 1447]
EC50 (HBE assay, read-out: HBE EC50): < 1 µM
Emax [4]: > 60%

SMILES: Cc1cccc(C)c1-c1cc2cc(n1)NS(=O)(=O)c1cccc(c1)C(=O)N(Cc1ncc(N3CCC(C)(C)C3)cn1)[C@H](CC(C)(C)C)CO2 [Compound 524]
EC50 (Table 12, read-out: HBE EC50): < 1 µM
Emax [2]: > 60%

Continued, values first:

EC50 (Table 12, read-out: HBE EC50): < 1 µM
Emax [2]: > 60%
SMILES: CC(C)=Cc1cccc(CN2C(=O)c3cccc(c3)S(=O)(=O)Nc3nc(cc(-c4c(C)cccc4C)n3)OC[C@H]2CC(C)(C)C)n1 [Compound 589]

EC50 (Table 13, read-out: HBE EC50): < 1 µM
Emax [3]: > 60%
SMILES: Cc1ccc(N(C)C2CC3(CC3)C2)nc1CN1C(=O)c2cccc(c2)S(=O)(=O)Nc2nc(cc(-c3c(C)cccc3C)n2)OC[C@H]1CC(C)(C)C [Compound 1140]

activation at 10 µM (Table 12, at 10 μM): > 600%
SMILES: Cc1cccc(C)c1-c1cc2nc(n1)NS(=O)(=O)c1cccc(c1)C(=O)N(Cc1nc(C)c(C)n1C)[C@H](CC(C)(C)C)CO2 [Compound 269]

EC50 (HBE assay, read-out: HBE EC50): < 1 µM
Emax [4]: > 60%
SMILES: CCN(C)c1ccnc(CN2C(=O)c3cccc(c3)S(=O)(=O)Nc3nc(cc(-c4c(C)cccc4C)n3)OC[C@H]2CC(C)(C)C)n1 [Compound 1357]

EC50 (HBE assay, read-out: HBE EC50): < 1 µM
Emax [4]: > 60%
SMILES: Cc1cccc(C)c1-c1cc2nc(n1)NS(=O)(=O)c1cccc(c1)C(=O)N(Cc1ncc(OC(C)C)cc1C#N)[C@H](CC(C)(C)C)CO2 [Compound 1351]

activation at 10 µM (Table 13, at 10 μM): > 600%
SMILES: Cc1cccc(C)c1-c1cc2nc(n1)NS(=O)(=O)c1cccc(c1)C(=O)N(Cc1nc(Br)ccc1F)[C@H](CC(C)(C)C)CO2 [Compound 372]

EC50 (Table 13, read-out: HBE EC50): < 1 µM
Emax [3]: > 60%
SMILES: Cc1cccc(C)c1-c1cc2nc(n1)NS(=O)(=O)c1cccc(c1)C(=O)N(Cc1ccc(C3CC4(C3)CC(C)(C)C4)cn1)[C@H](CC(C)(C)C)CO2 [Compound 157, (11R)-6-(2,6-Dimethylphenyl)-11-(2,2-dimethylpropyl)-12-[[5-(2,2-dimethylspiro[3.3]heptan-6-yl)-2-pyridyl]methyl]-2,2-dioxo-9-oxa-2λ6-thia-3,5,12,19-tetrazatricyclo[12.3.1.14,8]nonadeca-1(18),4(19),5,7,14,16-hexaen-13-one]

EC50 (Table 11, read-out: HBE EC50): < 1 µM
Emax [1]: > 60%
SMILES: Cc1cccc(C)c1-c1cc2nc(n1)NS(=O)(=O)c1cccc(c1)C(=O)N(Cc1ncccc1OC(C)C)[C@H](CC(C)(C)C)CO2 [Compound 741]

EC50 (Table 11, read-out: HBE EC50): < 1 µM
Emax [1]: > 60%
SMILES: Cc1cccc(C)c1-c1cc2nc(n1)NS(=O)(=O)c1cccc(c1)C(=O)N(Cc1cc(C(C)(C)C)ccn1)[C@H](CC(C)(C)C)CO2 [Compound 886]

activation at 10 µM (HBE assay, 10 μM): > 60%
SMILES: CC(=O)N(C)c1cnc(CN2C(=O)c3cccc(c3)S(=O)(=O)Nc3nc(cc(-c4c(C)cccc4C)n3)OC[C@H]2CC(C)(C)C)nc1 [Compound 1516]

EC50 (Table 12, read-out: HBE EC50): < 1 µM
Emax [2]: > 60%
SMILES: COC1(C)CN(c2cnc(CN3C(=O)c4cccc(c4)S(=O)(=O)Nc4nc(cc(-c5c(C)cccc5C)n4)OC[C@H]3CC(C)(C)C)nc2)C1 [Compound 585]

EC50 (HBE assay, read-out: HBE EC50): < 1 µM
Emax [4]: > 60%
SMILES: CCO[C@H]1CCN(c2cnc(CN3C(=O)c4cccc(c4)S(=O)(=O)Nc4nc(cc(-c5c(C)cccc5C)n4)OC[C@H]3CC(C)(C)C)nc2)C1 [Compound 1438]

activation at 10 µM (Table 13, at 10 μM): > 600%
SMILES: Cc1cccc(C)c1-c1cc2nc(n1)NS(=O)(=O)c1cccc(c1)C(=O)N(CC(=O)NCc1ccccn1)[C@H](CC(C)(C)C)CO2 [Compound 220]

EC50 (Table 11, read-out: HBE EC50): < 1 µM
Emax [1]: > 60%
SMILES: CCNc1cccc(CN2C(=O)c3cccc(c3)S(=O)(=O)Nc3nc(cc(-c4c(C)cccc4C)n3)OC[C@H]2CC(C)(C)C)n1 [Compound 738]
